Consider 7 molecules from publication PMC12736194, “1-Azinyl-1′-Alkenylferrocenes with Anticholinesterase, Antioxidant, and Antiaggregating Activities as Multifunctional Agents for Potential Treatment of Alzheimer’s Disease” (Pharmaceuticals, 2025).

Data set [1] can be described thus: ABTS radical cation scavenging activity assay.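 On Exp. ABTS, TEAC: same experimental ABTS TEAC values reprinted in Table 4 beside calculated BDE and IP.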 The settings on record: for IC50: ABTS^•+ 100 μM; for IC50 / ABTS^•+-Scavenging Activity, TEAC: ethanol, 1 h; for ABTS^•+-Scavenging Activity, TEAC: Trolox equivalent antioxidant capacity, mean ± SEM, n = 3.
Data set [2] has as its system human neuroblastoma cell cultures (SH-SY5Y). Nature of the data set: Cytotoxicity, MTT test, SH-SY5Y. The settings on record: read-out: Cytotoxic activity, LC50, SH-SY5Y, 24 h, 1 to 1024 μM, mean ± SE, n = 3. Here is the method:
(§1) Cytotoxic activity was assessed using the MTT test. […] For each compound, the half-lethal concentration parameter LC50 (μM) was calculated.
(§2) This study employed SH-SY5Y neuroblastoma cells and dental pulp-derived mesenchymal stem cells (MSC-DP). Cells were cultured in DMEM/F12 with 10% (v/v) FBS under standard conditions. MSC-DP were reprogrammed into neuronal-like cells (MSC-Neu) using Neurobasal medium with addition of Neuromax and 3% (v/v) FBS for 5 days.
(§3) The cytotoxic effect of Fcs was assessed using the Mossman test for cellular dehydrogenase activity (MTT test). […] For each compound, the half-lethal concentration parameter (LC50) in μM was calculated as described previously.
(In general: Tetrazolium dyes change colour on reduction, which living cells bring about.)

The nature of data set [3]: Ferric reducing antioxidant power (FRAP) assay.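 On Exp. FRAP, TE: same experimental FRAP TE values reprinted in Table 4 beside calculated BDE and IP.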 The settings on record: for Ferric Reducing Antioxidant Power, TE: Trolox equivalents, acetate buffer pH 3.6, 1 h, 37 °C.
Data set [4] has as its target T1, human β-amyloid (1–42) (HsAβ42) (Homo sapiens, UniProt P05067).
T1 construct: purchased AnaSpec Inc
Nature of the data set: Inhibition of HsAβ42 self-aggregation (thioflavin T fluorescence). The following applies: HsAβ42 50 µM, compound 100 µM, 24 h, 37 °C; n.a. = not active. The data set is classed as biochemical. On the procedure: The potential of compounds from all three groups (1a-e, 5a-e, 7a-d) to inhibit HsAβ42 self-aggregation was evaluated using a Thioflavin T (ThT) fluorescence assay.
Inhibition of HsAβ42 self-aggregation by test compounds was studied using the thioflavin T (ThT) fluorescence method with minor modifications as described in detail in [79]. Lyophilized HFIP-pretreated HsAβ42 (AnaSpec Inc., Fremont, CA, USA, 0.5 mg) was dissolved in DMSO to obtain a stable 500 μM solution. The samples of 50 μM HsAβ42 in 215 mM Na-phosphate buffer pH 8.0 were incubated for 24 h at 37 °C in the absence or presence of 100 μM test compounds. Myricetin in the same concentration was used as a reference. After incubation, 5 μM ThT in 50 mM glycine-NaOH buffer pH 8.5 was added, and the fluorescence was measured at 440 nm (exc.) and 485 nm (emis.) with a FLUOStar Optima microplate reader. Blanks consisted of 215 mM Na-phosphate buffer, pH 8.0, 20% (v/v) DMSO or test compounds, respectively. The inhibition (%) of HsAβ42 self-aggregation by the test compounds was calculated.

Data set [5] addresses T2, peripheral anionic site (PAS) of Electrophorus electricus AChE (EeAChE) (Electrophorus electricus, UniProt O42275).
T2 construct: purchased Sigma-Aldrich type VI-S
The data set is described as follows: Propidium displacement from the EeAChE PAS (fluorescence). The following applies: compound concentration 20 µM; EeAChE 7 μM, propidium iodide 8 μM, Tris-HCl pH 8.0; n.a. = not active. The data set is classed as binding. Here is the method: A fluorescence-based assay assessed the ability of test compounds to competitively displace propidium iodide from AChE’s PAS [65, 93]. […] EeAChE (7 μM) was incubated with 20 μM test compounds in Tris-HCl buffer (pH 8.0) for 15 min, followed by addition of propidium iodide (8 μM) as described in detail in [95]. Fluorescence readings (530 nm excitation, 600 nm emission) were obtained using a FLUOStar Optima microplate reader (LabTech, Ortenberg, Germany). Displacement (%) was calculated.

Data set [6] deals with reprogrammed human neuronal cell cultures (MSC-Neu). The data set is described as follows: Cytotoxicity, MTT test, MSC-Neu. The settings on record: read-out: Cytotoxic activity, LC50, MSC-Neu, 24 h, 1 to 1024 μM, mean ± SE, n = 3. On the procedure:
as §1, §2, §3

For data set [7], the target named is T3, equine (Equus caballus) serum BChE (EcBChE) (Equus caballus, UniProt P81908).
T3 construct: equine (Equus caballus) serum BChE (EcBChE); purchased Sigma-Aldrich; host or cells: horse serum
Nature of the data set: Inhibition of EcBChE (spectrophotometric, BTCh iodide substrate). The data set is classed as biochemical. The settings on record: mean ± SEM, n = 3; for IC50: K/Na-phosphate buffer pH 7.5, 25 °C; for Inhibition of EcBChE, % inhibition at 20 μM: compound 20 μM, n.a. = not active. Here is the method:
(§4) In these experiments, human (Homo sapiens) erythrocyte AChE (HsAChE), equine (Equus caballus) serum BChE (EcBChE), and porcine (Sus scrofa) liver CES (SsCES) were used because of their ready availability, relatively low cost, and high sequence homology of EcBChE and SsCES to the corresponding human enzymes.
(§5) Enzymes, substrates, and reference compounds were sourced from Sigma-Aldrich (St. Louis, MO, USA). Enzyme activity was measured spectrophotometrically according to [91] using ATCh iodide, BTCh iodide, and 4-NPA as substrates for HsAChE, EcBChE, and SsCES, respectively. Experimental conditions included a K/Na-phosphate buffer (100 mM), at 25 °C, with pH 7.5 for AChE and BChE assays, and pH 8.0 for CES assays. Measurements were conducted on a BioRad Benchmark Plus microplate spectrophotometer (Hercules, CA, USA). Test compounds were dissolved in DMSO with a final solvent concentration of 2% (v/v) in the incubation mixture.

The target of data set [8] is T4, human (Homo sapiens) erythrocyte AChE (HsAChE) (Homo sapiens, UniProt P22303).
T4 construct: human (Homo sapiens) erythrocyte AChE (HsAChE); purchased Sigma-Aldrich; host or cells: human erythrocytes
The data set is described as follows: Inhibition of HsAChE (spectrophotometric, ATCh iodide substrate). The data set is classed as biochemical. The settings on record: mean ± SEM, n = 3; for IC50: K/Na-phosphate buffer pH 7.5, 25 °C; for Inhibition of HsAChE, % inhibition at 20 μM: compound 20 μM, n.a. = not active. Here is the method: as §4, §5

The test system of data set [9] is porcine (Sus scrofa) liver CES (SsCES). The data set is described as follows: Inhibition of SsCES (spectrophotometric, 4-NPA substrate). The data set is classed as biochemical. The settings on record: compound 20 μM; n.a. = not active; mean ± SEM, n = 3.
Excerpt: as §4
Although the dominant carboxylesterase in porcine liver is CES1 [64], the preparation sourced from Sigma-Aldrich is not a purified or recombinant CES1. Therefore, we have designated the preparation used in our experimental studies as SsCES. However, in computational molecular docking studies, it is necessary to choose a single defined protein as the docking target. Thus, the logical choice for our computational studies of CES was the most abundant and best characterized isoform found in porcine liver, which is SsCES1.
as §5

T3 sequence (P81908 whole entry): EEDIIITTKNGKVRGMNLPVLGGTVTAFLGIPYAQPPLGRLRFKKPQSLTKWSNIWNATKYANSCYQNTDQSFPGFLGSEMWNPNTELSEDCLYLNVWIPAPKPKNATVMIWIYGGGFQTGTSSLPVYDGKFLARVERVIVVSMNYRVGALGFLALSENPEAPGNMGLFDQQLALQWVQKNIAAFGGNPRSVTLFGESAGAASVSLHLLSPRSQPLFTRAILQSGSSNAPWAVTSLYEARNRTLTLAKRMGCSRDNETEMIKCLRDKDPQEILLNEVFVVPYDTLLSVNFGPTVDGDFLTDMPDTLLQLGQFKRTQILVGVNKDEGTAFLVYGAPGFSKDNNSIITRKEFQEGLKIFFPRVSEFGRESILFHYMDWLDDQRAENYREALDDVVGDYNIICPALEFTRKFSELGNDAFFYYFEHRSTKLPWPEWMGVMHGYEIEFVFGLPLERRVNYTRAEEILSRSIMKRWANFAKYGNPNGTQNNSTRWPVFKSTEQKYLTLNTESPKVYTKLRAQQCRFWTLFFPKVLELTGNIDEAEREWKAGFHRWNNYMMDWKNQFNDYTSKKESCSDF
T1 sequence (P05067 672-713 limits assumed): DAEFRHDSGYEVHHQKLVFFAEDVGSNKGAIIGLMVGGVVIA
T2 sequence (O42275 24-633): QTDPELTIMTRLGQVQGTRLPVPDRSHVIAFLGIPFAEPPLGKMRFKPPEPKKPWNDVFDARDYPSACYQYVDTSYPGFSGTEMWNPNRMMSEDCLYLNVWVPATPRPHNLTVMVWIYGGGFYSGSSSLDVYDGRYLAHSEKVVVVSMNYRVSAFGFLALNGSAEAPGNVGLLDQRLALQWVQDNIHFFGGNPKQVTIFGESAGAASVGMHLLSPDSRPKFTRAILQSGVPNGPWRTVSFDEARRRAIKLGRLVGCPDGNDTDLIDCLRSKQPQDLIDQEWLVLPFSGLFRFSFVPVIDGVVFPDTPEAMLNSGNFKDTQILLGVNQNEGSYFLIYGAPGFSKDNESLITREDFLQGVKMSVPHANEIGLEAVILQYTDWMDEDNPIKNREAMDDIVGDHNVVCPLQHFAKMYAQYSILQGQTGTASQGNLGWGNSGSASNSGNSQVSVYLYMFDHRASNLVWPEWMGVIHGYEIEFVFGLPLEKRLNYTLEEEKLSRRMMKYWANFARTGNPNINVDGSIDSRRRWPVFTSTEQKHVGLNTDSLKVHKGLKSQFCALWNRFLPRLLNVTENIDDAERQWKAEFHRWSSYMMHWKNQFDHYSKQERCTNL
T4 sequence (P22303 32-617 isoform P22303-2 limits assumed): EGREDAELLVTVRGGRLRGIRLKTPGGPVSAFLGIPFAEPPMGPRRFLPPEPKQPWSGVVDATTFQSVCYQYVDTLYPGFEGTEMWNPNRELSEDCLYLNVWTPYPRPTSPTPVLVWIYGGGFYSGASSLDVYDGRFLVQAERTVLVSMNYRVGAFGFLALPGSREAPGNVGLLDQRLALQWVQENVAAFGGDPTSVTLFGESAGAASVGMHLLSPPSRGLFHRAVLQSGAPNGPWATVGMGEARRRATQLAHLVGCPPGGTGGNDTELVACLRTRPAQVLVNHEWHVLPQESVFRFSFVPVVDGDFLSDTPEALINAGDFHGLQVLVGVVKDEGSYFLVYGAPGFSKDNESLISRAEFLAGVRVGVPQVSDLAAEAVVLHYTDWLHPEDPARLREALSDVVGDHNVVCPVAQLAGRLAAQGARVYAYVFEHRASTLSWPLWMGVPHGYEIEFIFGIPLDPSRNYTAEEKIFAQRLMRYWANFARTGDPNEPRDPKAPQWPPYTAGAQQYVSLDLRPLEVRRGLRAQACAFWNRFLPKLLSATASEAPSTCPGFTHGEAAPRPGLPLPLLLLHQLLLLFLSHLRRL

Regarding `[Fe+2].c1cc[cH-]c1.c1ccc2nc(-[c-]3cccc3)ccc2c1` [1b], the half-maximal inhibitory concentration (IC50) in [1] was 6.6 ± 0.3 µM; in data set [7], 2.7 ± 0.19 µM; in data set [8] it was 68.1 ± 3.4 µM. Moreover, in [1], the “ABTS^•+-Scavenging Activity, TEAC” value came to 4.2 ± 0.2. In addition, the CC50 amounted to 243 ± 27.4 µM in [2] and 393 ± 13.2 µM in data set [6]. Also, the “Ferric Reducing Antioxidant Power, TE” value in data set [3] is 2.21 ± 0.01. Besides, the “HsAβ42 self-Aggregation Inhibition, (%)” value in [4] is reported as 79.5 ± 6.3%. The “Propidium Displacement, (%)” value in data set [5] was found to be 10.2 ± 0.8%. In addition, the “Inhibition of SsCES, % inhibition at 20 μM” value in [9] stood at 29.8 ± 2.0%.
`[Fe+2].c1cc[cH-]c1.c1ccc(-c2cccc(-[c-]3cccc3)n2)nc1` [1d]: the IC50 is 20.6 ± 1.5 µM in [1], 13.8 ± 1.2 µM in [7] and 7.89 ± 0.63 µM in data set [8]. For the same molecule, in data set [1], the “ABTS^•+-Scavenging Activity, TEAC” value was 1.00 ± 0.04. In addition, the CC50 in [2] was determined as 152 ± 21.2 µM; in data set [6], 632 ± 22.8 µM. For the same molecule, the “Ferric Reducing Antioxidant Power, TE” value in data set [3] stood at 1.77 ± 0.04. For the same molecule, the “HsAβ42 self-Aggregation Inhibition, (%)” value in data set [4] is reported as 63.7 ± 5.1%. The “Propidium Displacement, (%)” value in data set [5] is 11.1 ± 0.9%. For the same molecule, the “Inhibition of SsCES, % inhibition at 20 μM” value in data set [9] was 20.9 ± 1.6%.
For the molecule `C=C(C)[c-]1cccc1.[Fe+2].c1ccc2nc(-[c-]3cccc3)ccc2c1` [5b], the IC50 in data set [1] was found to be 5.6 ± 0.3 µM; in data set [7], 9.91 ± 0.69 µM; in data set [8], 4.01 ± 0.28 µM. Moreover, the “ABTS^•+-Scavenging Activity, TEAC” value in data set [1] is given as 4.3 ± 0.2. Moreover, the CC50 in data set [2] was determined as 281 ± 30.1 µM; in [6], 564 ± 31.8 µM. Moreover, the “Ferric Reducing Antioxidant Power, TE” value in data set [3] is reported as 3.13 ± 0.17. In data set [4], the “HsAβ42 self-Aggregation Inhibition, (%)” value is recorded as 82.9 ± 6.6%. Moreover, the “Propidium Displacement, (%)” value in [5] turned out to be 11.5 ± 0.8%. Also, in data set [9], the “Inhibition of SsCES, % inhibition at 20 μM” value is given as 35.4 ± 2.8%.
As to `C=C(C)[c-]1cccc1.[Fe+2].c1ccc(-c2cccc(-[c-]3cccc3)n2)nc1` [5d], the results for the half-inhibitory concentration (IC50) in [1], in data set [7] and in data set [8] were 20.8 ± 0.1 µM, 4.86 ± 0.39 µM and 5.12 ± 0.41 µM, respectively. Besides, in [1], the “ABTS^•+-Scavenging Activity, TEAC” value was 0.94 ± 0.05. The CC50 was 189 ± 19.3 µM in data set [2] and 414 ± 18.6 µM in [6]. Besides, in [3], the “Ferric Reducing Antioxidant Power, TE” value was 1.47 ± 0.06. For the same molecule, in [4], the “HsAβ42 self-Aggregation Inhibition, (%)” value came to 83.8 ± 4.2%. The “Propidium Displacement, (%)” value in [5] stood at 8.2 ± 0.6%.
Take `C=C[c-]1cccc1.[Fe+2].c1ccc2c(-[c-]3cccc3)c3ccccc3nc2c1` [7c, 1-(Acridin-9-yl)-1′-Vinylferrocene]: in [1], the IC50 was 6.9 ± 0.3 µM and the “ABTS^•+-Scavenging Activity, TEAC” value is on record as 2.9 ± 0.1. The “Ferric Reducing Antioxidant Power, TE” value in data set [3] worked out at 1.36 ± 0.01. For the same molecule, the “HsAβ42 self-Aggregation Inhibition, (%)” value in [4] is 86.9 ± 6.1%. The “Propidium Displacement, (%)” value in data set [5] amounted to 10.4 ± 0.8%. Moreover, in data set [7], the “Inhibition of EcBChE, % inhibition at 20 μM” value was found to be 7.6 ± 1.1%. The “Inhibition of HsAChE, % inhibition at 20 μM” value in data set [8] turned out to be 22.8 ± 1.8%. Also, the “Inhibition of SsCES, % inhibition at 20 μM” value in data set [9] was found to be 14.1 ± 1.5%.
`C=C[c-]1cccc1.[Fe+2].c1ccc(-c2cccc(-[c-]3cccc3)n2)nc1` [7d, 1-(2,2′-Bipyridin-6-yl)-1′-Vinylferrocene]: the IC50 came to 15.6 ± 0.7 µM in data set [1], 7.94 ± 0.55 µM in data set [7] and 6.34 ± 0.51 µM in [8]. The “ABTS^•+-Scavenging Activity, TEAC” value in [1] came out at 1.36 ± 0.06. Besides, the CC50 in data set [2] is 158 ± 19.8 µM; in data set [6], 299 ± 21.9 µM. Further, in [3], the “Ferric Reducing Antioxidant Power, TE” value was found to be 1.93 ± 0.06. Further, the “HsAβ42 self-Aggregation Inhibition, (%)” value in data set [4] came to 81.5 ± 4.9%. Moreover, in [5], the “Propidium Displacement, (%)” value turned out to be 9.7 ± 0.6%. The “Inhibition of SsCES, % inhibition at 20 μM” value in [9] was 5.8 ± 1.3%.
On to `[Fe+2].c1cc[cH-]c1.c1cc[cH-]c1` [Fc, ferrocene], for which, in data set [1], the IC50 is 32.9 ± 1.9 µM and the “ABTS^•+-Scavenging Activity, TEAC” value came to 0.57 ± 0.03. Further, in data set [1] (Ethanol, Table 4), the “Exp. ABTS, TEAC” value was found to be 0.57 ± 0.03. In [3], the “Ferric Reducing Antioxidant Power, TE” value came to 0.79 ± 0.02. The “Exp. FRAP, TE” value in [3] (Water, Table 4) was determined as 0.79 ± 0.02. In addition, the “HsAβ42 self-Aggregation Inhibition, (%)” value in [4] amounted to 3.5 ± 0.4%. In addition, the “Propidium Displacement, (%)” value in [5] was “zero”. Further, in data set [7], the “Inhibition of EcBChE, % inhibition at 20 μM” value is 6.7 ± 1.0%. For the same molecule, the “Inhibition of HsAChE, % inhibition at 20 μM” value in [8] is 9.6 ± 1.4%. Besides, the “Inhibition of SsCES, % inhibition at 20 μM” value in [9] was 4.2 ± 0.7%.

For orientation: IC50 means the concentration needed to halve the response being measured.
